Laboratory results taken from ChEMBL document CHEMBL3853282, “(±)-Japonicols A-D, Acylphloroglucinol-Based Meroterpenoid Enantiomers with Anti-KSHV Activities from Hypericum japonicum” (J Nat Prod, 2016).

How the values were obtained:
[1] = Cytotoxicity against African green monkey Vero cells assessed as reduction in cell viability after 48 hrs by Alamar blue assay; type: toxicity, cell-based; conditions: chlorocebus sabaeus
Human gammaherpesvirus 8 = assay: Antiviral activity against Kaposi's sarcoma-associated herpesvirus infected in African green monkey Vero cells exposed to supernatant from 48 hrs compound treated human iSLK.219 cells infected with KSHV by GFP based microscopy; type: functional, cell-based; conditions: Human gammaherpesvirus 8, Vero
[2] = Selectivity index, ratio of CC50 for African green monkey Vero cells to EC50 for Kaposi's sarcoma-associated herpesvirus infected in African green monkey Vero cells; type: toxicity, cell-based; conditions: read-out: Ratio CC50/EC50

Row | Structure (SMILES) | EC50 (Human gammaherpesvirus 8) [µM] | CC50 at 48 h [1] [µM] | selectivity ratio [2]
1 | CC(C)C(=O)c1c(O)cc(O)c(C[C@@H]2[C@@H](C(C)(C)O)CC[C@]2(C)O)c1O | 158 | > 300 | > 1.89
2 | CC(C)C(=O)c1c(O)cc(O)c2c1OC(C)(C)[C@@H]1CC[C@@](C)(O)[C@H]1C2 | 39.8 | > 300 | 
3 | CC(C)C(=O)c1c(O)cc(O)c2c1O[C@@]1(C)CC[C@@H](C(C)(C)O)[C@@H]2[C@H]1O | 203 | > 500 | > 2.46
4 | CC(C)C(=O)c1c(O)cc(O)c(C[C@H]2[C@H](C(C)(C)O)CC[C@@]2(C)O)c1O | 40 | > 300 | > 7.5
5 | CC(C)C(=O)c1c(O)cc(O)c2c1O[C@]1(C)CC[C@H](C(C)(C)O)[C@H]2[C@@H]1O | 141 | > 500 | > 3.55

These reach a lower EC50 (Human gammaherpesvirus 8). Values come first.

Row | EC50 (Human gammaherpesvirus 8) [µM] | Structure (SMILES) | CC50 at 48 h [1] [µM] | selectivity ratio [2]
6 | 17.7 | CC(C)C(=O)c1c(O)cc(O)c2c1OC(C)(C)[C@H]1CC[C@](C)(O)[C@@H]1C2 | 221 | 
7 | 29.1 | CC(C)C(=O)c1c(O)cc(O)c2c1O[C@]1(C)CC[C@@H](C(C)(C)O)O[C@@H]1C2 | 174 | 
8 | 8.75 | CC(C)C(=O)c1c(O)cc(O)c2c1O[C@@]1(C)CC[C@H](C(C)(C)O)O[C@H]1C2 | 141 | 
